# Results: publication PMC6006285, “Specific stereochemistry of OP-1074 disrupts estrogen receptor alpha helix 12 and confers pure antiestrogenic activity” (Nature Communications, 2018)
# Several values for one entry are separate records, joined by “and”; a condition that tells them apart may be missing. Equal values may be shown once. Read-outs that look alike come from different tables or passages of the source.
# Experiments:
# AP = test system: AP; set-up: method as in Holinka et al.; conditions: ref Holinka et al.; cited from earlier work
# uterus = conditions: cited from earlier work
# MCF-7 cells = test: Inhibition of E2-stimulated proliferation of MCF-7 cells; type: cell-based; conditions: Homo sapiens
# [1] = test system: AP activity in Ishikawa uterine cells; test: Alkaline phosphatase (AP) assay, agonist mode (absence of E2); type: cell-based, human; conditions: for Induction of AP activity (% E2): Maximum AP activity observed relative to positive control, 500 pM E2, means of n independent experiments ±s.d.; for Maximal AP activity in agonist mode relative to E2 control: absence of E2, normalized to 500 pM E2, representative experiment (Fig. 2a)
# Method: (§1) Our primary screen to distinguish pure antiestrogens from SERMs was induction of alkaline phosphatase (AP) activity in Ishikawa uterine cells. […] The reference SERM used in our screen was endoxifen (N-desmethyl-4-hydroxytamoxifen), the most abundant bioactive metabolite of tamoxifen.
# (§2) Shown is a representative figure analyzed and presented as above.
# (§3) At least 4 h later cells were treated with antiestrogens and media was diluted to 2.5% stripped FBS. Cells were incubated for 3 days, media removed and plates frozen at −80 °C. Thawed plates were incubated with a chromogenic substrate of AP, p-nitrophenyl phosphate (ThermoFisher Scientific, #36721), for 40–60 min at 40 °C, and absorbance read at 405 nm on the Varioskan Lux multimodal plate reader (ThermoFisher Scientific, #VLBL00D0).
# [2] = test system: estrogen responsive reporter gene, ERE-tk109-Luc, in MCF-7 cells; test: Inhibition of E2-stimulated transcription of ERE-tk109-Luc reporter gene in MCF-7 cells; type: cell-based; conditions: Homo sapiens
# ERα = target: T1, ERα (Homo sapiens, UniProt P03372); test: ERα protein levels by immunoblotting; type: cell-based; conditions: MCF-7 cells, 100 nM ligand, 24 h, means of n experiments ±s.d.
# T1 construct: endogenous in cells
# T1 sequence (P03372 1-595): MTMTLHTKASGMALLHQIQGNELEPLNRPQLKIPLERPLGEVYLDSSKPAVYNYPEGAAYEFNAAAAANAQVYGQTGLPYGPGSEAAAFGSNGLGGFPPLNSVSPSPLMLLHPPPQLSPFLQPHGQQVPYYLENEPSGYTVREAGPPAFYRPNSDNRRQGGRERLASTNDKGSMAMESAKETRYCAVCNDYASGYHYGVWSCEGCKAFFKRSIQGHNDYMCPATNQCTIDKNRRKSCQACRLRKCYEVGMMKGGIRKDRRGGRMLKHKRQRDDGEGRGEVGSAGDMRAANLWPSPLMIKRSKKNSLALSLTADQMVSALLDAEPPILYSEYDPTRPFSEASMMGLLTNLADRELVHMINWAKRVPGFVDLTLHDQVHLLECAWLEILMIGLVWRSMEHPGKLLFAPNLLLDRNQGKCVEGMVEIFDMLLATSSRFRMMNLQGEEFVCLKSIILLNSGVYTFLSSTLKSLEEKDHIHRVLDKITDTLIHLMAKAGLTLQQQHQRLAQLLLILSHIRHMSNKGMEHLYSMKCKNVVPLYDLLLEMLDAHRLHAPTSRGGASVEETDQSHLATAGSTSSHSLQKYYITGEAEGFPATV
# Method: However, it is conceivable that under some clinical contexts SERD activity may still be a desirable feature by reducing the number of functional receptors in tumors.
# Imaging was performed on FluorChem Imager by Alpha Innotech. […] An uncropped image of the immunoblot is shown in Supplementary Fig. 5.
# [3] = test system: E2-stimulated AP activity in Ishikawa cells; test: Alkaline phosphatase (AP) assay, antagonist mode (presence of 500 pM E2); type: cell-based, human; conditions: for Antagonism of E2-stimulated AP activity: 500 pM E2
# Method: as §1, §2, §3
# [4] = target: T2, Estrogen Receptor α LBD (ERα) (Homo sapiens, UniProt P03372); test: Competitive ligand binding assay with [3H]-E2; conditions: for IC50: 10 nM [3H]-E2 tracer, 2 nM biotinylated ERα LBD, representative experiment
# T2 construct: 2 nM biotinylated Estrogen Receptor α LBD (ERα) was incubated; biotin (biotinylated)
# T2 sequence (P03372 311-547 limits assumed): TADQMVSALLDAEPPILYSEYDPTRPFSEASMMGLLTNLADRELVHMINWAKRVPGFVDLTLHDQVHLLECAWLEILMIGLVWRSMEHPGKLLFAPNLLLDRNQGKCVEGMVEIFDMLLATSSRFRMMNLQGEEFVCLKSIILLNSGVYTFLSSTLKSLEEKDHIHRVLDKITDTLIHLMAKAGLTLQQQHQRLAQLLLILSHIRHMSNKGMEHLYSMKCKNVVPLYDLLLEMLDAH
# Method: Experimental data points are mean + /− s.e.m. of triplicate samples in a representative experiment. […] Experimental data points are mean + /− s.d. of triplicate samples in a representative experiment
# Triplicate reactions were vortexed and 100 μL was added in triplicate to a 96-well streptavidin flashplate (Perkin Elmer #SMP103001PK), which incubated overnight at 4 °C prior to reading.
# CAMA-1 cells = test: Inhibition of E2-stimulated proliferation of CAMA-1 cells; type: cell-based; conditions: Homo sapiens, CAMA-1, 192 h; read-out: CAMA-1 IC50 proliferation (Fig. 3c)
# Method: Shown is a representative figure analyzed and presented as above. d, Western blot of destabilization of ERα protein by OP-1074.
# Proliferation was measured using CyQuant fluorescent DNA-binding dye kit (ThermoFisher Scientific, #C7026) using 1:200 GR dye and reading fluorescence at 485 nm excitation and 538 nm emission on the Varioskan Lux multimodal plate reader.
# [5] = test system: uterus of ovariectomized mice; set-up: method as in PMID 15968821; conditions: cited from earlier work
# MCF7/HER2/neu tumors = test system: MCF7/HER2/neu tumors
# Method: MCF7/HER2/neu cells were grown in culture and implanted into 6–7 week athymic ovariectomized female nu/nu mice (Taconic Biosciences). To stimulate tumor growth, 0.18 mg estradiol 90 day release pellets (Innovative Research) were implanted along with cells. […] Tumor volume and bodyweight were measured twice weekly. At end of the study animals were euthanized, tumors resected and snap frozen in liquid nitrogen, and uteri were resected, weighed, and fixed in 10% formalin.
# [6] = MCF7, read-out: IC50 proliferation
# [7] = MCF7, 24 h, read-out: IC50 transcription
# [8] = MCF7, 168 h, read-out: MCF-7 IC50 proliferation (Fig. 3b)
# [9] = MCF7, 22 h, read-out: IC50 inhibition of E2-stimulated transcription (Fig. 3a)
# [10] = number of 10 tumors at end of study, OP-1074 100 mg/kg oral twice daily, fulvestrant 100 mg/kg subcutaneous daily
Compound,IC50 (MCF-7 cells; [6]) [nM],Induction of AP activity (% E2) [1],"IC50 [2, 7] [nM]",Relative ERα protein levels (% vehicle) (ERα),IC50 (MCF-7 cells; [8]) [nM],Maximal AP activity in agonist mode relative to E2 control ([1]; 3 days) [%],"IC50 [2, 9] [nM]",IC50 (CAMA-1 cells) [nM],further results
"CC/C(=C(\c1ccc(O)cc1)c1ccc(OCCN(C)C)cc1)c1ccccc1 [4-OHT, (Z)-4-trans-hydroxytamoxifen]",,,,,,,,,Activation of AP (AP): 1.3 fold
CC/C(=C(/c1ccc(/C=C/C(=O)O)cc1)c1ccc2[nH]ncc2c1)c1ccc(F)cc1Cl [GDC-0810],,,,,,,,,Agonist effects in the uterus (uterus): mild to moderate agonist effects in the uterus
CC1=C(c2ccc(O)cc2)C(c2ccc(OCCN3CCC[C@H]3C)cc2)Oc2cc(O)ccc21 (some centres unmarked) [OP-1039],6.4 ± 1,49% ± 18 (n = 8) % E2,0.5 ± 0.1,119% ± 13 (n = 6) % vehicle,,,,,
CC1=C(c2ccc(O)cc2)C(c2ccc(OCCN3CCC[C@@H]3C)cc2)Oc2cc(O)ccc21 (some centres unmarked) [OP-1047],5.5 ± 1.4,136% ± 15 (n = 4) % E2,1.3 ± 0.4,319% ± 100 (n = 5) % vehicle,,,,,
CC1=C(c2ccc(O)cc2)[C@H](c2ccc(OCCN3CC[C@H](C)C3)cc2)Oc2cc(O)ccc21 [OP-1154],6 ± 1.1,40% ± 6.5 (n = 3) % E2,5.6 ± 2.1,123% ± 22 (n = 4) % vehicle,6.9,39,4,8.1,Antagonism of E2-stimulated AP activity ([3]; Ishikawa cells): did not completely antagonize E2-stimulated AP activity; IC50 [4]: 14.3 ± 0.06 nM; Binding affinity relative to OP-1074 and OP-1156 (fold lower) ([4]; [3H]-E2 competitive binding): approximately 2 fold
CC1=C(c2ccc(O)cc2)[C@H](c2ccc(OCCN3CCCC3)cc2)Oc2cc(O)ccc21 [OP-1156],5.2 ± 1.3,40% ± 7.8 (n = 3) % E2,5.9 ± 2.1,152% ± 31 (n = 4) % vehicle,6.3,40,4,4.2,Uterine wet weight [5]: increased uterine wet weight; IC50 [4]: 6 nM and 6.13 nM
CCNCCc1ccc(CN(CC)c2cc(OC)ccc2[C@@H]2CCc3cc(O)ccc3C2)cc1 [RAD1901],,,,,,,,,Agonist effects in the uterus (uterus): mild to moderate agonist effects in the uterus
"CC/C(=C(\c1ccc(O)cc1)c1ccc(OCCNC)cc1)c1ccccc1 [endoxifen, (Z)-4-hydroxy-N-desmethyltamoxifen, reference compound]",13 ± 2.2,73% ± 10 (n = 8) % E2,6.3 ± 1.3,139% ± 34 (n = 20) % vehicle,,82,,,"AP activity remaining in antagonist mode ([3]; Ishikawa cells, 500 pM E2, 1 µM drug): 58%"
"C[C@]12CC[C@@H]3c4ccc(O)cc4C[C@@H](CCCCCCCCC[S+]([O-])CCCC(F)(F)C(F)(F)F)[C@H]3[C@@H]1CC[C@@H]2O (some centres unmarked) [fulvestrant, reference compound]",2.5 ± 0.3,0.05% ± 2.7 (n = 58) % E2,2 ± 0.2,,2.2,,6.3,1.9,"IC50 ([3]; Homo sapiens, Ishikawa, 72 h, read-out: IC50 inhibition of E2-stimulated AP activity): 3 nM; Antagonism of E2-stimulated AP activity ([3]; Ishikawa cells): completely inhibited E2-stimulated AP activity; AP activity in agonist mode ([1]; 3 days, absence of E2, all doses tested): lacked any AP activity; Tumors shrunk / growth inhibited by >50% (MCF7/HER2/neu tumors; [10]): 5/10; Tumors shrunk >80% (MCF7/HER2/neu tumors; [10]): 1/10"
"CC/C(=C(\c1ccccc1)c1ccc(OCCN(C)C)cc1)c1ccccc1 [tamoxifen, reference compound]",,,,,,,,,"Tumors shrunk below the initial tumor size (MCF7/HER2/neu tumors; end of study, 100 mg/kg tamoxifen daily by oral gavage): half"
